Data taken from US9096951B2, “Method for producing second-generation library” (Nuevolution A/S, priority 2003, dated 2015).

Tests used:
Type in all cases: binding
integrin aVβ3 = integrin aVβ3 (Homo sapiens, UniProt P05106+P06756); assay: Selection of the 700-member encoded library on immobilised integrin aVβ3, then PCR, cloning and sequencing of identifier codons; details: for Count (times the chemical entity's codon was seen after selection): 700-member library after selection, single building block at its position; for Count (times the chemical entity's codon was seen after selection) / share of sequences containing the chemical entity after selection: out of 51 sequences
Procedure: Maxisorp ELISA wells (NUNC A/S, Denmark) were coated with each 100 μL 2 μg/mL integrin aVβ3 in PBS buffer [2.8 mM NaH2PO4, 7.2 mM Na2HPO4, 0.15 M NaCl, pH 7.2] overnight at 4° C. Then the integrin solution was substituted for 200 μl blocking buffer [TBS, 0.05% Tween 20 (Sigma P-9416), 1% bovine serum alnumin (Sigma A-7030), 1 mM MnCl2] which was left on for 3 hours at room temperature. Then the wells were washed 10 times with blocking buffer and the encoded library was added to the wells after diluting it 100 times with blocking buffer. Following 2 hours incubation at room temperature the wells were washed 10 times with blocking buffer. After the final wash the wells were cleared of wash buffer and subsequently inverted and exposed to UV light at 300-350 nm for 30 seconds using a trans-illuminator set at 70% power. Then 100 μl blocking buffer without Tween-20 was immediately added to each well, the wells were shaken for 30 seconds, and the solutions containing eluted identifiers were removed for PCR amplification.
A TOPO-TA (Invitrogen) ligation reaction is assembled with 4 μl PCR product, 1 μl salt solution (Invitrogen) and 1 μl vector. Water is added to 6 μl. The reaction is then incubated at RT for 30 min. Heat-shock competent TOP10 E. coli cells are then thawed on ice and 5 μl of the ligation reaction is added to the thawed cells. The cells are then incubated 30 min on ice, heatshocked in 42° C. water for 30 sec, and then put on ice again. 250 μl of growth medium is added to the cells and they are incubated 1 h at 37° C. The medium containing cells is then spread on a growth plate containing 100 μg/ml ampicillin and incubated at 37° C. for 16 hours.
Individual E. coli clones are then picked and transferred to PCR wells containing 50 μl water. These 50 μl were incubated at 94° C. for 5 minutes and used in a 20 μl in a 25 μl PCR reaction with […] of each TOPO primer M13 forward & M13 reverse and Ready-To-Go PCR beads (Amersham Biosciences). The following PCR profile is used: 94° C. 2 min, then 30×(94° C. 4 sec, 50° C. 30 sec, 72° C. 1, min) then 72° C. 10 min. Primers and nucleotides are then degraded by adding 1 μl 1:1 EXO/SAP mixture (USB corp.) to 2 μl PCR product and incubating at 37° C. for 15 min and then 80° C. for 15 min to heat-inactivate the enzymes. […] T7 primer is added and water is added to 12 μl. Then 8 μl DYEnamic ET cycle sequencing Terminator Mix (Applied biosystems) is added to each well. A thermocycling profile of 30×(95° C. 20 sec, 50° C. 15 sec, 60° C. 1 min) is then run. Then 10 μl water is added to each well and sequencing reactions are purified using seq96 spinplates (Amersham Biosciences). Reactions are then run on a MegaBace capillary electrophoresis instrument (Molecular Dynamics) using injection parameters 2 kV, 50 sec and run parameters: 9 kV 45 min and analyzed using Contig Express software (Informax).
After the selection as described above, the codons in the identifier oligonucleotides were analysed. Before the analysis, the identifier oligonucleotides were amplified using the constant flanking regions and the amplified material was used in the identifier sequence analysis.

Integrin αvβ3 receptor [1] = biological target: T1, Integrin αvβ3 receptor (Homo sapiens, UniProt P05106+P06756); assay: Selection of Library 1 and Library 2 (61,875 members each) for binders of the Integrin αvβ3 receptor, then building block abundance analysis; details: value = library (1, 2) in which it was more abundant after selection; for More abundant in position 2 in library no.: building block chosen for Library 3 position 2; for More abundant in position 3 in library no.: building block chosen for Library 3 position 3
Text: The following scheme describes the split and mix assembly of the libraries: • i.) n times [BB1+Oligo1→BB1−Oligo1] in separate wells • Optionally purify product • ii.) mix all n wells into one tube • iii.) split product of ii.) into m separate wells • iv.) m times [BB2+BB1−Oligo1+Oligo2→BB2−BB1−Oligo1−Oligo2] in separate wells • Optionally purify product • v.) mix all m wells into one tube • vi.) split product of v.) into p separate wells • vii.) p times [BB3+BB2−BB1−Oligo1−Oligo2+Oligo3→BB3−BB2−BB1−Oligo1−Oligo2−Oligo3] in separate wells Optionally purify product • viii.) mix all p wells into one tube • ix.) Selection was performed and binders isolated • x.) PCR of DNA and sequencing • xi.) Analyse for building block abundancy and full sequence information
Building block abundances analysis may be done by QPCR or by sequencing full sequences and then analyzing for the abundance of individual building blocks.
Two libraries of 61,875 members (Library 1 and 2) were generated as described in example 6 above and selected for binders of the Integrin αvβ3 receptor separately. The libraries were generated with 99 different building blocks in position 1, 25 different building blocks in position 2 and 25 different building blocks in position 3.
(§1) The identified sequences were then analyzed for the abundances of building blocks at each position in the sequence. The most abundant building blocks at each position from the two libraries 1 and 2 were then used again to generate a new and smaller library of 1,365 members, which was selected for binders of the Integrin αvβ3 receptor. The library was generated with 7 different building blocks in position 1, 13 different building blocks in position 2 and 15 different building blocks in position 3.

Integrin αvβ3 receptor [2] = biological target: T1, Integrin αvβ3 receptor; assay: Selection of the second-generation library (Library 3, 1,365 members) for binders of the Integrin αvβ3 receptor, then sequencing of isolated identifiers; details: 31 analysed sequences
Procedure: as §1
A subset of the isolated sequences from the library post selection was analysed:
These sequences could be translated into the following building block compositions: […]

T1 sequence (P06756 31-889 limits assumed): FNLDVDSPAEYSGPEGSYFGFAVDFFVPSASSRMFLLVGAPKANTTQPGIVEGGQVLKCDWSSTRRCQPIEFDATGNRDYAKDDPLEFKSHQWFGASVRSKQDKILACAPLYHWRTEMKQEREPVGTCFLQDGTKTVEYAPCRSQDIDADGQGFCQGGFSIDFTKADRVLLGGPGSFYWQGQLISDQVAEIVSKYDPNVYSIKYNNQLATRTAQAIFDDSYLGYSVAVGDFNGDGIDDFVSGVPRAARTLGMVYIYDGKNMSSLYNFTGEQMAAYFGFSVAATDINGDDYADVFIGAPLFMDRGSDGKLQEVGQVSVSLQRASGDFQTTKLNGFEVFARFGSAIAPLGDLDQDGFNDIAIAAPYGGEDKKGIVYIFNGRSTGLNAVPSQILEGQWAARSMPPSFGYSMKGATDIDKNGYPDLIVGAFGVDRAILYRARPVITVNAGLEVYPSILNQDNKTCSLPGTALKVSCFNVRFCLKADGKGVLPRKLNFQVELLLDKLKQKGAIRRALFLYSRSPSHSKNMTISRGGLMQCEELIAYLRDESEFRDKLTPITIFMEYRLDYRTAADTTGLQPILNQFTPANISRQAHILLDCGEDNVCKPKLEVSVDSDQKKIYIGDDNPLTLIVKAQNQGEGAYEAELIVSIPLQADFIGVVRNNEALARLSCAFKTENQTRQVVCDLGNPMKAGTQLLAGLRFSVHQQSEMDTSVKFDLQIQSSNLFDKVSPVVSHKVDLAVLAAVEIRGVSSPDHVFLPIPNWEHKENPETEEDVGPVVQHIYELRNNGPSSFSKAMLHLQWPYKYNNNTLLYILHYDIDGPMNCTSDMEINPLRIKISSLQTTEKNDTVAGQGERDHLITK
T1 sequence (P06756 891-1048 partner limits assumed): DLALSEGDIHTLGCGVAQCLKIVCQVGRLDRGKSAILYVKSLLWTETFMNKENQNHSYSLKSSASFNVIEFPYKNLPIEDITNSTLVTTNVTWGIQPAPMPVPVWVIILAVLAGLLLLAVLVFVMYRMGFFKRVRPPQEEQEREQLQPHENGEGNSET
T1 sequence (P05106 27-788): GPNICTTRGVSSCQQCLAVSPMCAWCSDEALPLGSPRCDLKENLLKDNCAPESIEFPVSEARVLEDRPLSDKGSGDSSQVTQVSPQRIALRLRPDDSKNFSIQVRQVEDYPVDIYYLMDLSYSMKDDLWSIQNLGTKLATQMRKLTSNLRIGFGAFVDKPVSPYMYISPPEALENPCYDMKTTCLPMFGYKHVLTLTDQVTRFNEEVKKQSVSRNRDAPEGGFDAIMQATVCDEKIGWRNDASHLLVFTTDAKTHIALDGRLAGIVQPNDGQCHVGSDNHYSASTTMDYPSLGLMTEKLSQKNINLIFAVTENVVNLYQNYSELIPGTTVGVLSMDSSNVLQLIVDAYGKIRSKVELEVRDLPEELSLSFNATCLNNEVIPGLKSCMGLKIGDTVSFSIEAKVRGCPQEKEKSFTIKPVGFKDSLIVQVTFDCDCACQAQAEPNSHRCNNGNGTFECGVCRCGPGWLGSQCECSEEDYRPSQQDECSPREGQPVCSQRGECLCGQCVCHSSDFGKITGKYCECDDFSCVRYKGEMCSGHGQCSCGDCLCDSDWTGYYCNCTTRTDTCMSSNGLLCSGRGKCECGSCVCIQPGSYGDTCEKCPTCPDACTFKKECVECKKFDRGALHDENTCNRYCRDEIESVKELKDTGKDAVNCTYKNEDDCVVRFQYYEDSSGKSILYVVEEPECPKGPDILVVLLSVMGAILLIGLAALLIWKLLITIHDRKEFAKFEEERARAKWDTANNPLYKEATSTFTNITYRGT
Sequence of integrin aVβ3 (P06756 31-889 limits assumed): as the sequence (P06756 31-889 limits assumed) above
Sequence of integrin aVβ3 (P06756 891-1048 partner limits assumed): as the sequence (P06756 891-1048 partner limits assumed) above
Sequence of integrin aVβ3 (P05106 27-788): as the sequence (P05106 27-788) above

SMILES | Count (times the chemical entity's codon was seen after selection) (integrin aVβ3) | also measured
C=CCCC(=O)NCCCC(=O)O [BBA0004182] | 5 | –
C=CCCC(=O)C(CCC(=O)O)CC1CC1 (stereo not shown) [BBA0001011] | 1 | –
O=C(O)c1csc(-c2cccnc2)n1 [BBA0008512] | 2 | –
C=CCCC(=O)NCC(=O)O [BBA0000592] | – | More abundant in position 2 in library no. (Integrin αvβ3 receptor [1]): 1
C=CCCC(=O)N1CC(C(=O)O)C1 [BBA0001582] | 13 | –
N[C@@H](CC(=O)O)C(=O)O [BB-A-000098, L-Asp] | 47 | share of the chemical entity before the selection (integrin aVβ3): 25%; share of sequences containing the chemical entity after selection (integrin aVβ3): 92%; More abundant in position 3 in library no. (Integrin αvβ3 receptor [1]): 1; building block abundance per position in sequences isolated post selection (Integrin αvβ3 receptor [2]): dominated
C=CCCC(=O)N1CCCC[C@H]1C(=O)O [BBA0004232] | 2 | –
C=CCCC(=O)N[C@H]1CC[C@@H](C(=O)O)C1 [BBA0004212] | 2 | –
CC(CCCC(=O)O)Nc1ccccn1 (stereo not shown) [BBA0001401] | – | More abundant in position 3 in library no. (Integrin αvβ3 receptor [1]): 2
C=CCCC(=O)NCc1cccc(C(=O)O)c1 [BBA0003132] | 1 | –
CC(CCC(=O)O)Nc1ccccn1 (stereo not shown) [BBA0001391] | 9 | More abundant in position 3 in library no. (Integrin αvβ3 receptor [1]): 2
CC(C)(C)OC(=O)NC(CCCCNC(=O)c1ccccn1)C(=O)O (stereo not shown) [BBA0008312] | 1 | –
N[C@H](CC(=O)O)C(=O)O [BBA000152, D-Asp] | – | More abundant in position 1 in library no. (Integrin αvβ3 receptor [1]; building block chosen for Library 3 position 1): 1; More abundant in position 2 in library no. (Integrin αvβ3 receptor [1]): 2; building block abundance per position in sequences isolated post selection (Integrin αvβ3 receptor [2]): also found
C=CCCC(=O)NCc1ccc(C(=O)O)cc1 [BBA0003172] | 2 | –
O=C(O)CCCc1ccc2c(n1)NCCC2 [BBA0001006] | 4 | –
O=C(O)CCCNc1ccccn1 [BBA0000531] | 35 | share of the chemical entity before the selection (integrin aVβ3): 14%; share of sequences containing the chemical entity after selection (integrin aVβ3): 68%; More abundant in position 3 in library no. (Integrin αvβ3 receptor [1]): 2
C=CCCC(=O)N[C@@H](C)CC(=O)O [BBA000099, Gly] | 14 | share of the chemical entity before the selection (integrin aVβ3): 4%; share of sequences containing the chemical entity after selection (integrin aVβ3): 27%; building block abundance per position in sequences isolated post selection (Integrin αvβ3 receptor [2]): dominated
C=CCCC(=O)N1CCC[C@H]1C(=O)O [BBA0003142] | 1 | –
C=CCCC(=O)N[C@H]1CCCC[C@H]1C(=O)O [BBA0003152] | 1 | –
C=CCCC(=O)N1CCCC(C(=O)O)C1 (stereo not shown) [BBA0000832] | – | More abundant in position 2 in library no. (Integrin αvβ3 receptor [1]): 1
C=CCCC(=O)N1CCC[C@@H]1C(=O)O [BBA000064] | 1 | –
C=CCCC(=O)N(CCC)CCC(=O)O [BBA0001101] | 2 | –
C=CCCC(=O)N[C@@H]1CC[C@H](C(=O)O)C1 [BBA0004222] | – | More abundant in position 2 in library no. (Integrin αvβ3 receptor [1]): 2
C=CCCC(=O)N1CCCC[C@@H]1C(=O)O [BBA0004242] | 6 | –
